# Reference: patent US20020026053A1, “Novel 3-(substituted) -2- indolinones compounds and use thereof as inhibitors of protein kinase activity” (priority 1997, published 2002)
# Where “and” joins values, the source holds several entries; their conditions need not be identical. Equal values may be shown once.
# Biological target: T1, Met receptor (EGFR/Met chimeric cells, EMR) (Homo sapiens, UniProt P08581)
# T1 construct: expressed in transfected cells; the other entry of the earlier key: EGFR (P00533, Epidermal growth factor receptor)
# Test: Met Autophosphorylation Assay
# Format: biochemical
# Conditions: not given
# Outline: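 Met phosphorylation was measured by capture ELISA. Lysates (90 μg/100 μl, HNTG plus 1 mM PMSF) from transiently transfected EGFR/Met chimera (EMR) cells were bound for 60 min at room temperature to wells holding rabbit anti-Met (C-28) on goat anti-rabbit coat. Phosphotyrosine was the read-out.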
# T1 sequence (P08581 with tags, fused parts or gaps): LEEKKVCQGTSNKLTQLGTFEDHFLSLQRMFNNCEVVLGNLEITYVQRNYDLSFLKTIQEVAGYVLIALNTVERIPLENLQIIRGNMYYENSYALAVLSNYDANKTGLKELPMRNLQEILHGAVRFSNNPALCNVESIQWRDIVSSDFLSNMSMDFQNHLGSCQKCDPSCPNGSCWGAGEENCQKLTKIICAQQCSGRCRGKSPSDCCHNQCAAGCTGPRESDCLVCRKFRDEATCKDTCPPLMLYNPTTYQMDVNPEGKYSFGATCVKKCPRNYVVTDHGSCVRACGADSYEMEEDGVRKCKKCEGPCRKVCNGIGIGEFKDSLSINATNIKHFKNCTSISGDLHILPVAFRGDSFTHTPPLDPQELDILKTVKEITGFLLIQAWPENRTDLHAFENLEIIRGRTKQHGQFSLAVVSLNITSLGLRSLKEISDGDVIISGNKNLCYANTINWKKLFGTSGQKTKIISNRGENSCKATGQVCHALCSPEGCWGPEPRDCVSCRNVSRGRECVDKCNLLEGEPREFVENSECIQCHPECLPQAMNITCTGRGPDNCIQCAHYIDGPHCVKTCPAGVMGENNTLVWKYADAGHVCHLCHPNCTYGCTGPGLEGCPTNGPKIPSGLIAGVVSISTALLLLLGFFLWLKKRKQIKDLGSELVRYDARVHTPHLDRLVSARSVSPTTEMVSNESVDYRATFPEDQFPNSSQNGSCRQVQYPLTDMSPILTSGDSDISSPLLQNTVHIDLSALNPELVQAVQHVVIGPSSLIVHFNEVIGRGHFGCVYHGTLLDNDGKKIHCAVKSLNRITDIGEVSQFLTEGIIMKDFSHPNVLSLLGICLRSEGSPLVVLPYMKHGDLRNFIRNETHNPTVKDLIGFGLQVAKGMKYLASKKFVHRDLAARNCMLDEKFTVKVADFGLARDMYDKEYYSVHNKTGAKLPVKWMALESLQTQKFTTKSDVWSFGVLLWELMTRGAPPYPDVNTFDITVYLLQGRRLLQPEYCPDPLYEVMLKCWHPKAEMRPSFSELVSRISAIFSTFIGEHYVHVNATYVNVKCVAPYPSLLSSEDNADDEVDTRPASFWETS
row,SMILES,Met Kinase % Inhibition (P.130) [%]
1,CCOc1cc(C=C2C(=O)Nc3c(Br)cc(Br)c(C)c32)ccc1O [10720/H09],49.0
2,O=C1Nc2ccc(CCCl)cc2C1=Cc1ccc(Cl)cc1 [10736/G02],48.3
3,Cc1c(Br)cc(Br)c2c1C(=Cc1cccn1C)C(=O)N2 [10717/H04],14.0
4,Cc1c(Br)cc(Br)c2c1C(=Cc1cc3ccccc3o1)C(=O)N2 [10724/H07],8.6
5,Cc1c(Br)cc(Br)c2c1C(=Cc1ccc([N+](=O)[O-])c(O)c1)C(=O)N2 [10724/H04],69.3
6,Cc1c(Br)cc(Br)c2c1C(=Cc1ccc(O)cc1O)C(=O)N2 [10723/H08],86.2
7,Cc1c(Br)cc(Br)c2c1C(=Cc1cc(C(C)(C)C)c(O)c(C(C)(C)C)c1)C(=O)N2 [10721/H11],46.0
8,Cc1ccc(C=C2C(=O)Nc3c(Br)cc(Br)c(C)c32)o1 [10725/H04],47.1
9,Cc1c(Br)cc(Br)c2c1C(=Cc1ncc[nH]1)C(=O)N2 [10720/H11],28.0
10,Cc1c(Br)cc(Br)c2c1C(=Cc1csc([N+](=O)[O-])c1)C(=O)N2 [10722/H09],67.6
11,Cc1c(Br)cc(Br)c2c1C(=Cc1ccc(O)c(C(C)(C)C)c1)C(=O)N2 [10721/H09],36.7
12,Cc1c(Br)cc(Br)c2c1C(=Cc1ccc([N+](=O)[O-])s1)C(=O)N2 [10722/H04],62.2
13,COc1cccc(C=C2C(=O)Nc3ccc(S(=O)(=O)N4CCOCC4)cc32)c1 [10736/F10],65.3
14,COc1cccc(C=C2C(=O)Nc3c(Br)cc(Br)c(C)c32)c1O [10723/H03],69.2
15,COc1cc(O)c(C=C2C(=O)Nc3c(Br)cc(Br)c(C)c32)c(OC)c1 [10724/H08],65.8
16,Cc1cccc(C=C2C(=O)Nc3ccc(CCCl)cc32)c1 [10736/G04],−6.6
17,Cc1cc(C)c(C=C2C(=O)Nc3c(Br)cc(Br)c(C)c32)[nH]1 [10721/H08],42.5
18,Cc1c(Br)cc(Br)c2c1C(=Cc1cccc(Br)c1)C(=O)N2 [10723/H10],46.4
19,Cc1c(Br)cc(Br)c2c1C(=Cc1cc(Cl)c(O)c(C(C)(C)C)c1)C(=O)N2 [10722/H08],72.6
20,Cc1cc(C=C2C(=O)Nc3c(Br)cc(Br)c(C)c32)cc(C)c1O [10722/H07],51.0
21,Cc1c(Br)cc(Br)c2c1C(=Cc1cc(Br)c(O)c(C(C)(C)C)c1)C(=O)N2 [10721/H10],46.9

row,SMILES,Met Kinase % Inhibition (P.130) [%]
1,CCc1ccc(C=C2C(=O)Nc3c(Br)cc(Br)c(C)c32)o1 [10724/H10],72.2
2,Cc1c(Br)cc(Br)c2c1C(=Cc1ccccc1Br)C(=O)N2 [10723/H07],44.9
3,Cc1c(Br)cc(Br)c2c1C(=Cc1ccc(Cl)s1)C(=O)N2 [10721/H07],10.4
4,Cc1c(Br)cc(Br)c2c1C(=Cc1ccccc1)C(=O)N2 [10720/H06],24.4
5,CC(=O)Oc1ccc(C=C2C(=O)Nc3c(Br)cc(Br)c(C)c32)cc1OC(C)=O [10723/H05],64.2
6,Cc1c(Br)cc(Br)c2c1C(=Cc1cc(C(C)C)c(O)c(C(C)C)c1)C(=O)N2 [10724/H06],32.8
7,Cc1cc(C=C2C(=O)Nc3c(Br)cc(Br)c(C)c32)ccc1O [10723/H06],44.9
8,Cc1c(Br)cc(Br)c2c1C(=Cc1cc3c([nH]1)CCCC3)C(=O)N2 [10721/H05],33.6
9,CSc1ccc(C=C2C(=O)Nc3c(Br)cc(Br)c(C)c32)s1 [10720/H07],10.8
10,Cc1c(Br)cc(Br)c2c1C(=Cc1ccc(O)c([N+](=O)[O-])c1)C(=O)N2 [10724/H03],26.1
11,Cc1c(Br)cc(Br)c2c1C(=Cc1ccccc1[N+](=O)[O-])C(=O)N2 [10726/H02],66.6
12,Cc1c(Br)cc(Br)c2c1C(=Cc1sc3scc(C)c3c1C)C(=O)N2 [10724/H11],9.8
13,Cc1c(Br)cc(Br)c2c1C(=Cc1ccc(N3CCOCC3)cc1)C(=O)N2 [10725/H08],5.7
14,Cc1c(Br)cc(Br)c2c1C(=Cc1ccc(N3CCN(C=O)CC3)cc1)C(=O)N2 [10725/H07],14.2
15,Cc1c(Br)cc(Br)c2c1C(=Cc1c[nH]cn1)C(=O)N2 [10725/H11],17.8
16,Cc1c(Br)cc(Br)c2c1C(=Cc1c(Br)cnn1-c1ccc(Cl)cc1)C(=O)N2 [10725/H10],21.8
17,Cc1c(Br)cc(Br)c2c1C(=Cc1ccc(O)c(O)c1O)C(=O)N2 [10723/H02],100.8
18,Cc1c(Br)cc(Br)c2c1C(=Cc1cccn1-c1ccc(Cl)cc1)C(=O)N2 [10724/H09],4.2
19,Cc1c(Br)cc(Br)c2c1C(=Cc1cc([N+](=O)[O-])cc(CCl)c1O)C(=O)N2 [10721/H06],90.3
20,Cc1c(Br)cc(Br)c2c1C(=Cc1nn(C)cc1Cl)C(=O)N2 [10721/H03],21.3
21,Cc1c(Br)cc(Br)c2c1C(=Cc1sccc1Br)C(=O)N2 [10725/H02],15.8

row,SMILES,Met Kinase % Inhibition (P.130) [%]
1,Cc1cc(C=C2C(=O)Nc3c(Br)cc(Br)c(C)c32)[nH]n1 [10725/H05],20.8
2,Cc1c(Br)cc(Br)c2c1C(=Cc1ccc(C(=O)O)cc1)C(=O)N2 [10722/H05],83.2
3,COc1cc(C)cc(O)c1C=C1C(=O)Nc2c(Br)cc(Br)c(C)c21 [10725/H06],33.0
4,Cc1c(Br)cc(Br)c2c1C(=Cc1cc(O)c(O)c(Br)c1)C(=O)N2 [10723/H04],95.6
5,COc1ccc(C=C2C(=O)Nc3c(Br)cc(Br)c(C)c32)c(O)c1 [10723/H09],62.1
6,COc1ccc(Br)c(C=C2C(=O)Nc3c(Br)cc(Br)c(C)c32)c1O [10725/H03],58.3
7,Cc1c(Br)cc(Br)c2c1C(=Cc1cccs1)C(=O)N2 [10717/H03],18.3
8,CCCCN(CCCC)c1ccc(C=C2C(=O)Nc3c(Br)cc(Br)c(C)c32)cc1 [10722/H10],30.3
9,Cc1c(Br)cc(Br)c2c1C(=Cc1nc3ccccc3n1C)C(=O)N2 [10721/H02],39.7
10,CCOc1ccccc1C=C1C(=O)Nc2c(Br)cc(Br)c(C)c21 [10717/H02],44.5
11,Cc1c(Br)cc(Br)c2c1C(=Cc1ccccc1O)C(=O)N2 [10720/H05],51.0
12,Cc1cc(O)cc(O)c1C=C1C(=O)Nc2c(Br)cc(Br)c(C)c21 [10720/H08],40.0
13,COc1ccc(C=C2C(=O)Nc3c(Br)cc(Br)c(C)c32)cc1OC [10720/H04],21.3
14,Cc1cc(C=C2C(=O)Nc3c(Br)cc(Br)c(C)c32)sc1C [10721/H04],72.9
15,O=C1Nc2ccc(CCCl)cc2C1=Cc1ccccc1C(F)(F)F [10736/G03],0.6
16,Cc1c(Br)cc(Br)c2c1C(=Cc1c(O)cc(O)cc1O)C(=O)N2 [10722/H03],100.5
17,COC(=O)Cc1c(Cl)[nH]c(C=C2C(=O)Nc3c(Br)cc(Br)c(C)c32)c1C(=O)OC [10725/H09],41.6
18,Cc1c(Br)cc(Br)c2c1C(=Cc1ccc(C(F)(F)F)cc1)C(=O)N2 [10722/H11],66.1
19,O=C1Nc2ccc(S(=O)(=O)N3CCOCC3)cc2C1=Cc1ccccc1Cl [10736/F11],25.2

# Same assay, conditions: protocol P.130
row,SMILES,Met Kinase % Inhibition (P.130)
1,CCc1ccc(C=C2C(=O)Nc3ccc(CCCl)cc32)cc1 [10736/G09],16.2%
2,Cc1ccc(C=C2C(=O)Nc3c(Br)cc(Br)c(C)c32)cc1 [10736/H05],21.1%
3,Cc1c(Br)cc(Br)c2c1C(=Cc1cccc(Cl)c1)C(=O)N2 [10736/H06],27.4%
4,O=C1Nc2ccc(CCCl)cc2C1=Cc1ccccc1Cl [10736/G11],10.3%
5,O=C1Nc2ccc(CCCl)cc2C1=Cc1cccc(F)c1 [10736/G07],−0.2%
6,COc1cccc(C=C2C(=O)Nc3ccc(CCCl)cc32)c1 [10736/G10],5.7%
7,Cc1ccc(C=C2C(=O)Nc3ccc(CCCl)cc32)cc1 [10736/G05],0.0% and 1.3%
8,Cc1c(Br)cc(Br)c2c1C(=Cc1ccccc1C(F)(F)F)C(=O)N2 [10736/H03],27.7%
9,Cc1c(Br)cc(Br)c2c1C(=Cc1ccc(Cl)cc1)C(=O)N2 [10736/H02],62.8%
10,Cc1cccc(C=C2C(=O)Nc3c(Br)cc(Br)c(C)c32)c1 [10736/H04],27.2%
11,O=C1Nc2ccc(CCCl)cc2C1=Cc1ccccc1F [10736/G08],6.6%
